In patent publication US7297535B2, “Use of the human LRP/MVP promotor for a vector that can be induced by therapy” (Max-Delbrück-Centrum Für Molekulare Medizin, priority 2000, dated 2007):

System: LRP/MVP promoter
Test: Inducibility of LRP/MVP promoter by cytostatics (CAT expression)
Type: cell-based, human
Conditions: for inducibility of the human LRP/MVP gene promoter by therapy-relevant factors: general statement, no details given

| Compound | inducibility of the human LRP/MVP gene promoter by therapy-relevant factors | induction of LRP/MVP-promoter-mediated CAT expression (24 h after cytostatic administration, FIG. 2) |
| --- | --- | --- |
| N.N.[Cl][Pt][Cl] [cisplatin] | inductors |  |
| CC[C@]1(O)C[C@H]2CN(CCc3c([nH]c4ccccc34)[C@@](C(=O)OC)(c3cc4c(cc3OC)N(C=O)[C@H]3[C@@](O)(C(=O)OC)[C@H](OC(C)=O)[C@]5(CC)C=CCN6CC[C@]43[C@@H]65)C2)C1 [vincristin] | inductors |  |
| O=c1[nH]cc(F)c(=O)[nH]1 [5-fluoruracil] | inductors | induced |
| COc1cccc2c1C(=O)c1c(O)c3c(c(O)c1C2=O)C[C@@](O)(C(=O)CO)C[C@@H]3O[C@H]1C[C@H](N)[C@H](O)[C@H](C)O1 [adriamycin] | inductors |  |
